# Measurements taken from patent US4089965A, “Thiazolylphenylguanidines as antirhinovirus agents” (American Cyanamid Company, priority 1977, dated 1978).
# What was measured:
# Rhinovirus strain 5 = assay: Protection of tissue from cytopathic effects (plaque inhibition, filter paper disc or agar overlay); conditions: 33°, 3 to 5 days
# Rhinovirus Serotype 23 = assay: Plaque assay, minimal inhibitory concentration; assay type: cell-based; conditions: Enterovirus, inhibiting virus plaque formation by 50%
# Rhinovirus Type 29 = assay: Viral sensitivity, filter disc method; assay type: cell-based; conditions: strain 179E; about 50 mcg per disc, HeLa
# Experimental: (§1) In the test for viral sensitivity, by the filter disc method, 5 mg. of 1-(4-phenyl-2-thiazolyl)-3-phenylguanidine was dissolved in 1-2 drops of dimethylsulfoxide and 2.5 ml. of saline. Filter paper discs, when saturated with the solution, absorbed about 50 mcg. of the compound.
# (§2) Sensitivity tests were performed by a modification of the method of Herrmann, et al., Proc. Soc. Exp. Biol. & Med., 103, 625 (1960). HeLa monolayers in 150 mm plastic dishes were infected with 1.0 ml. of rhinovirus suspension known to produce destruction of 80-90% of the cells in 4 to 5 days. Following viral adsorption, the cells were overlayed with 30 ml. of Eagle's minimum essential medium containing Noble agar at 0.5%, bovine fetal serum at 2.0%, diethylaminoethyl dextran at 100 mcg/ml. and magnesium chloride at 3 millimoles. Filter discs (1/4 inch Carl Schleicher and Schuell Co., No. 740E), containing about 50 mcg. of 1-(4-phenyl-2-thiazolyl)-3-phenylguanidine, were placed on the solidified surface and the culture plates incubated at 33° C. After 4 to 5 days, the overlay medium was decanted and the cells stained with 0.1% crystal violet in 20% ethanol. A zone of 10 mm or more in which at least two-thirds of the cells were protected from viral cytopathic effects, indicates antiviral activity. The following Table III lists 35 rhinovirus serotypes which were inhibited by this compound.
# Rhinovirus Type 14 = assay: Viral sensitivity, filter disc method; assay type: cell-based; conditions: strain 1059; about 50 mcg per disc, HeLa
# Experimental: as §1, §2
# Rhinovirus Type 28 = assay: Viral sensitivity, filter disc method; assay type: cell-based; conditions: strain 6101CV29; about 50 mcg per disc, HeLa
# Experimental: as §1, §2
# Rhinovirus Type 38 = assay: Viral sensitivity, filter disc method; assay type: cell-based; conditions: strain CH79; about 50 mcg per disc, HeLa
# Experimental: as §1, §2
# Rhinovirus Type 36 = assay: Viral sensitivity, filter disc method; assay type: cell-based; conditions: strain 342H; about 50 mcg per disc, HeLa
# Experimental: as §1, §2
# Rhinovirus Type 19 = assay: Viral sensitivity, filter disc method; assay type: cell-based; conditions: strain 6072CV18; about 50 mcg per disc, HeLa
# Experimental: as §1, §2
# Rhinovirus Type 13 = assay: Viral sensitivity, filter disc method; assay type: cell-based; conditions: strain 353; about 50 mcg per disc, HeLa
# Experimental: as §1, §2
# Rhinovirus Type 10 = assay: Viral sensitivity, filter disc method; assay type: cell-based; conditions: strain 204CV14; about 50 mcg per disc, HeLa
# Experimental: as §1, §2
# Rhinovirus Type 41 = assay: Viral sensitivity, filter disc method; assay type: cell-based; conditions: strain 56110; about 50 mcg per disc, HeLa
# Experimental: as §1, §2
# Rhinovirus Type 24 = assay: Viral sensitivity, filter disc method; assay type: cell-based; conditions: strain 5146CV25; about 50 mcg per disc, HeLa
# Experimental: as §1, §2
# Rhinovirus Type 50 = assay: Viral sensitivity, filter disc method; assay type: cell-based; conditions: strain A2 No. 58; about 50 mcg per disc, HeLa
# Experimental: as §1, §2
# Rhinovirus Type 12 = assay: Viral sensitivity, filter disc method; assay type: cell-based; conditions: strain 181CV16; about 50 mcg per disc, HeLa
# Experimental: as §1, §2
# Rhinovirus Type 25 = assay: Viral sensitivity, filter disc method; assay type: cell-based; conditions: strain 5426CV26; about 50 mcg per disc, HeLa
# Experimental: as §1, §2
# Rhinovirus Type 5 = assay: Viral sensitivity, filter disc method; assay type: cell-based; conditions: strain Norman; about 50 mcg per disc, HeLa
# Experimental: as §1, §2
# Rhinovirus Type 16 = assay: Viral sensitivity, filter disc method; assay type: cell-based; conditions: strain 11757; about 50 mcg per disc, HeLa
# Experimental: as §1, §2
# Rhinovirus Type 1B = assay: Viral sensitivity, filter disc method; assay type: cell-based; conditions: strain B632; about 50 mcg per disc, HeLa, 33° C., 4 to 5 days
# Experimental: as §1, §2
# Rhinovirus Type 47 = assay: Viral sensitivity, filter disc method; assay type: cell-based; conditions: strain 1979MCV46; about 50 mcg per disc, HeLa
# Experimental: as §1, §2
# Rhinovirus Type 23 = assay: Viral sensitivity, filter disc method; assay type: cell-based; conditions: strain 5124CV24; about 50 mcg per disc, HeLa
# Experimental: as §1, §2
# Rhinovirus Type 30 = assay: Viral sensitivity, filter disc method; assay type: cell-based; conditions: strain 106F; about 50 mcg per disc, HeLa
# Experimental: as §1, §2
# Rhinovirus Type 2 = assay: Viral sensitivity, filter disc method; assay type: cell-based; conditions: strain HGP; about 50 mcg per disc, HeLa
# Experimental: as §1, §2
# Rhinovirus Type 15 = assay: Viral sensitivity, filter disc method; assay type: cell-based; conditions: strain 1734; about 50 mcg per disc, HeLa
# Experimental: as §1, §2
# Rhinovirus Type 51 = assay: Viral sensitivity, filter disc method; assay type: cell-based; conditions: strain 605CV45; about 50 mcg per disc, HeLa
# Experimental: as §1, §2
# Rhinovirus Type 31 = assay: Viral sensitivity, filter disc method; assay type: cell-based; conditions: strain 140F; about 50 mcg per disc, HeLa
# Experimental: as §1, §2
# Rhinovirus Type 34 = assay: Viral sensitivity, filter disc method; assay type: cell-based; conditions: strain 137-3; about 50 mcg per disc, HeLa
# Experimental: as §1, §2
# Rhinovirus Type 11 = assay: Viral sensitivity, filter disc method; assay type: cell-based; conditions: strain 1CV15; about 50 mcg per disc, HeLa
# Experimental: as §1, §2
# Rhinovirus Serotype 32 = assay: Plaque assay, minimal inhibitory concentration; assay type: cell-based; conditions: Enterovirus; HeLa Cells; inhibiting virus plaque formation by 50%
# Poliovirus Type 1 = assay: microbe, parasite or virus in culture; assay type: cell-based; conditions: Enterovirus C, HeLa, read-out: Minimal Inhibitory Concentration
# rhinoviruses = assay: Activity in three human epithelial cell lines; assay type: cell-based, rhinovirus; conditions: Hela, L-132 and Detroit-6
# rhinovirus 32 = assay type: in vivo, human; conditions: neutralization test, rhinovirus type 32
# Coxsackievirus B-2 = assay: Plaque assay, minimal inhibitory concentration; assay type: cell-based; conditions: HeLa Cells, inhibiting virus plaque formation by 50%
# Rhinovirus Serotype 50 = assay: Plaque assay, minimal inhibitory concentration; assay type: cell-based; conditions: Enterovirus; HeLa Cells; inhibiting virus plaque formation by 50%
smiles,measurement,setting,value
N=C(Nc1ccccc1)Nc1nc(-c2ccccc2)cs1 [1-(4-phenyl-2-thiazolyl)-3-phenylguanidine],Protection of tissue from destruction by virus,Rhinovirus strain 5,+
same,IC50,"Rhinovirus Serotype 23; L132, L-132 Cells",0.4 to 0.8 µg/mL
same,IC50,Rhinovirus Serotype 23; HeLa Cells,0.2 to 0.4 µg/mL
same,inhibition of rhinovirus serotype (zone of 10 mm or more),Rhinovirus Type 29,inhibited
same,inhibition of rhinovirus serotype (zone of 10 mm or more),Rhinovirus Type 14,inhibited
same,inhibition of rhinovirus serotype (zone of 10 mm or more),Rhinovirus Type 28,inhibited
same,inhibition of rhinovirus serotype (zone of 10 mm or more),Rhinovirus Type 38,inhibited
same,inhibition of rhinovirus serotype (zone of 10 mm or more),Rhinovirus Type 36,inhibited
same,inhibition of rhinovirus serotype (zone of 10 mm or more),Rhinovirus Type 19,inhibited
same,inhibition of rhinovirus serotype (zone of 10 mm or more),Rhinovirus Type 13,inhibited
same,inhibition of rhinovirus serotype (zone of 10 mm or more),Rhinovirus Type 10,inhibited
same,inhibition of rhinovirus serotype (zone of 10 mm or more),Rhinovirus Type 41,inhibited
same,inhibition of rhinovirus serotype (zone of 10 mm or more),Rhinovirus Type 24,inhibited
same,inhibition of rhinovirus serotype (zone of 10 mm or more),Rhinovirus Type 50,inhibited
same,inhibition of rhinovirus serotype (zone of 10 mm or more),Rhinovirus Type 12,inhibited
same,inhibition of rhinovirus serotype (zone of 10 mm or more),Rhinovirus Type 25,inhibited
same,inhibition of rhinovirus serotype (zone of 10 mm or more),Rhinovirus Type 5,inhibited
same,inhibition of rhinovirus serotype (zone of 10 mm or more),Rhinovirus Type 16,inhibited
same,inhibition of rhinovirus serotype (zone of 10 mm or more),Rhinovirus Type 1B,inhibited
same,inhibition of rhinovirus serotype (zone of 10 mm or more),Rhinovirus Type 47,inhibited
same,inhibition of rhinovirus serotype (zone of 10 mm or more),Rhinovirus Type 23,inhibited
same,inhibition of rhinovirus serotype (zone of 10 mm or more),Rhinovirus Type 30,inhibited
same,inhibition of rhinovirus serotype (zone of 10 mm or more),Rhinovirus Type 2,inhibited
same,inhibition of rhinovirus serotype (zone of 10 mm or more),Rhinovirus Type 15,inhibited
same,inhibition of rhinovirus serotype (zone of 10 mm or more),Rhinovirus Type 51,inhibited
same,inhibition of rhinovirus serotype (zone of 10 mm or more),Rhinovirus Type 31,inhibited
same,inhibition of rhinovirus serotype (zone of 10 mm or more),Rhinovirus Type 34,inhibited
same,inhibition of rhinovirus serotype (zone of 10 mm or more),Rhinovirus Type 11,inhibited
same,IC50,Rhinovirus Serotype 32,0.4 µg/mL
same,IC50,Poliovirus Type 1,0.8 µg/mL
same,activity against rhinoviruses in three human epithelial cell lines,rhinoviruses,equally active
same,antibody response of the treated subject who became clinically infected,rhinovirus 32,no antibody response
same,IC50,Coxsackievirus B-2,0.8 to 1.6 µg/mL
same,IC50,Rhinovirus Serotype 50,0.2 to 0.4 µg/mL
